Numbered stars: 1 amine (or outer) side, 2 acyl side, 3 side chain; on linkers, the order of the positions; unused ones are H or OH. Bridge positions count the residues as written; N and C are the ends. Square brackets hold non-standard residues; d marks the D form. Peptide text beside a SMILES is read from it. * marks the point of attachment. Trp(1-CH2COOH) = N[C@@H](Cc1cn(CC(=O)O)c2ccccc12)C(=O)O; NMePhe(4-COOH) = CN[C@@H](Cc1ccc(C(=O)O)cc1)C(=O)O; Nle(6-morpholino) = N[C@@H](CCCCN1CCOCC1)C(=O)O; X2 = O=C([C@H](Cc1cn(CCO)c2ccccc12)N[*:1])[*:2]; Phe(3-COOH) = N[C@@H](Cc1cccc(C(=O)O)c1)C(=O)O; NH(CH2CH2O)8Me = COCCOCCOCCOCCOCCOCCOCCOCCN*; NMePhe(3-Cl) = CN[C@@H](Cc1cccc(Cl)c1)C(=O)O; NMePhe(4-Cl) = CN[C@@H](Cc1ccc(Cl)cc1)C(=O)O; 3Pal(6-NH2) = Nc1ccc(C[C@H](N)C(=O)O)cn1; NMeY = CN[C@@H](Cc1ccc(O)cc1)C(=O)O; Nva(3-Et) = CCC(CC)[C@H](N)C(=O)O; hArg = N=C(N)NCCCC[C@H](N)C(=O)O; PEG4 = NCCOCCOCCOCCOCCC(=O)O; Carboxymethyl = O=C(O)C*
Legend:
Type in all cases: binding
[1] = molecular target: T1, human transferrin receptor (hTfR) (Homo sapiens, UniProt P02786); test: Evaluation of pH dependence (ratio of SPR koff or KD at pH 6.0 to pH 7.4); conditions: ratio of koff at pH 6.0 to pH 7.4
T1 sequence (P02786 whole entry): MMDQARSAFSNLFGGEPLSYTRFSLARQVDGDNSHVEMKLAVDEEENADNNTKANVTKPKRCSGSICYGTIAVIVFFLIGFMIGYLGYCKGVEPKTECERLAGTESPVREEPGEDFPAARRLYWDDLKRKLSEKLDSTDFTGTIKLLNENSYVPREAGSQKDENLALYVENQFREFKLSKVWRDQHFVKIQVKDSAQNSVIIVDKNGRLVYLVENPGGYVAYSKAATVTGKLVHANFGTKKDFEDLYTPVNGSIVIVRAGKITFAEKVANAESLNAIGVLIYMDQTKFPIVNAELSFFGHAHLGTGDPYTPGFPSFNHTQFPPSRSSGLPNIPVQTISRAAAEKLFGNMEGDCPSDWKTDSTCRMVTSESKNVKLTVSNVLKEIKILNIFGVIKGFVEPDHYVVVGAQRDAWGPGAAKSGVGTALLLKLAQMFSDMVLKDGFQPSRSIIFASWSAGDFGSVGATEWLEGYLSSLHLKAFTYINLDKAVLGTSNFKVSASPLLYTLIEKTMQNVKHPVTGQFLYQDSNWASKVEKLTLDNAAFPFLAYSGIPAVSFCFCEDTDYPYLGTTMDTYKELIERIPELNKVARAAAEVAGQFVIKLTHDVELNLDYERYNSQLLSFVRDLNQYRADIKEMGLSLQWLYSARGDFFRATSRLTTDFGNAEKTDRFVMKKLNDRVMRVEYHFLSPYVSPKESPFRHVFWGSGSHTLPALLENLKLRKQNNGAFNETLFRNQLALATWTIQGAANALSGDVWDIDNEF
Description: The ratio of the calculated koff or KD values under pH 6.0 conditions to those under pH 7.4 conditions was calculated to check pH dependency.

[2] = molecular target: T1, human transferrin receptor (hTfR); test: SPR measurement under pH 6.0 conditions (Biacore T200, NTA chip, immobilized hTfR); conditions: SPR, pH 6.0; read-out: hTfR SPR pH6.0 KD
[3] = molecular target: T1, human transferrin receptor (hTfR); test: SPR measurement under pH 7.4 conditions (Biacore T200, CM3 chip, hTfR captured by His Tag antibody); conditions: SPR, pH 7.4; read-out: hTfR SPR pH7.4 KD

Structure (SMILES)	dependency koff pH6.0/7.4 [1]	Kd [2] [nM]	Kd [3] [nM]
CC[C@H](C)[C@@H]1NC(=O)[C@H](Cc2ccc(OCC(=O)O)cc2)NC(=O)[C@H](Cc2ccc(O)cc2)NC(=O)[C@H](CC(N)=O)NC(=O)[C@H](Cc2cn(CCO)c3ccccc23)NC(=O)[C@H](C(C)C)NC(=O)[C@H](Cc2cccc(Cl)c2)N(C)C(=O)[C@H](C(C)C)NC(=O)[C@H](C)NC(=O)CSC[C@@H](C(=O)NCCOCCOCCOCCOCCC(N)=O)NC(=O)[C@H](Cc2ccc(O)cc2)N(C)C(=O)[C@H](Cc2cccc(C(=O)O)c2)NC(=O)[C@H](CCCNC(=N)N)NC(=O)[C@H](CCC(N)=O)NC(=O)[C@H]([C@@H](C)CC)NC1=O [compound 73]	7.54	4.78	1.85
CC[C@H](C)[C@@H]1NC(=O)[C@H](Cc2ccc(OCC(=O)O)cc2)NC(=O)[C@H](Cc2ccc(O)cc2)NC(=O)[C@H](CC(N)=O)NC(=O)[C@H](Cc2cn(CCO)c3ccccc23)NC(=O)[C@H](C(C)C)NC(=O)[C@H](Cc2cccc(Cl)c2)N(C)C(=O)[C@H](C(C)C)NC(=O)[C@H](C)NC(=O)CSC[C@@H](C(=O)NCCOCCOCCOCCOCCC(N)=O)NC(=O)[C@H](Cc2ccc(O)cc2)N(C)C(=O)[C@H](Cc2cccc(C(=O)O)c2)NC(=O)[C@H](CCCNC(=N)N)NC(=O)[C@H](CCC(N)=O)NC(=O)[C@H]([C@@H](C)O)NC1=O [compound 76] ({CH2CO}-AV[NMePhe(3-Cl)]V[X2]NYY(Carboxymethyl)ITQR[Phe(3-COOH)][NMeY]C[PEG4]-NH2; thioether N-15)	3.37	17	13
CCC(CC)[C@@H]1NC(=O)[C@H](Cc2ccc(OCC(=O)O)cc2)NC(=O)[C@H](Cc2ccc(N)nc2)NC(=O)[C@H](CC(N)=O)NC(=O)[C@H](Cc2cn(CC(=O)O)c3ccccc23)NC(=O)[C@H](C(C)C)NC(=O)[C@H](Cc2cccc(Cl)c2)N(C)C(=O)[C@H](C(C)C)NC(=O)[C@H](C)NC(=O)CSC[C@@H](C(=O)NCCOCCOCCOCCOCCC(N)=O)NC(=O)[C@H](Cc2ccc(O)cc2)N(C)C(=O)[C@H](Cc2cccc(C(=O)O)c2)NC(=O)[C@H](CCCCN2CCOCC2)NC(=O)[C@H](CCCCN2CCOCC2)NC(=O)[C@H]([C@@H](C)CC)NC1=O [compound 83] ({CH2CO}-AV[NMePhe(3-Cl)]V[Trp(1-CH2COOH)]N[3Pal(6-NH2)]Y(Carboxymethyl)[Nva(3-Et)]I[Nle(6-morpholino)][Nle(6-morpholino)][Phe(3-COOH)][NMeY]C[PEG4]-NH2; thioether N-15)	32.62	144	43.7
CCC(CC)[C@@H]1NC(=O)[C@H](Cc2ccc(OCC(=O)O)cc2)NC(=O)[C@H](Cc2ccc(N)nc2)NC(=O)[C@H](CC(N)=O)NC(=O)[C@H](Cc2cn(CC(=O)O)c3ccccc23)NC(=O)[C@H](C(C)C)NC(=O)[C@H](Cc2cccc(Cl)c2)N(C)C(=O)[C@H](C(C)C)NC(=O)[C@H](C)NC(=O)CSC[C@@H](C(=O)NCCOCCOCCOCCOCCC(N)=O)NC(=O)[C@H](Cc2ccc(C(=O)O)cc2)N(C)C(=O)[C@H](Cc2cccc(C(=O)O)c2)NC(=O)[C@H](CCCNC(=N)N)NC(=O)[C@H](CCC(N)=O)NC(=O)[C@H]([C@@H](C)CC)NC1=O [compound 87] ({CH2CO}-AV[NMePhe(3-Cl)]V[Trp(1-CH2COOH)]N[3Pal(6-NH2)]Y(Carboxymethyl)[Nva(3-Et)]IQR[Phe(3-COOH)][NMePhe(4-COOH)]C[PEG4]-NH2; thioether N-15)	17.51	466	175
CCC(CC)[C@@H]1NC(=O)[C@H](Cc2ccc(OCC(=O)O)cc2)NC(=O)[C@H](Cc2ccc(O)cc2)NC(=O)[C@H](CC(N)=O)NC(=O)[C@H](Cc2cn(CC(=O)O)c3ccccc23)NC(=O)[C@H](C(C)C)NC(=O)[C@H](Cc2cccc(Cl)c2)N(C)C(=O)[C@H](C(C)C)NC(=O)[C@H](C)NC(=O)CSC[C@@H](C(=O)NCCOCCOCCOCCOCCC(N)=O)NC(=O)[C@H](Cc2ccc(O)cc2)N(C)C(=O)[C@H](Cc2cccc(C(=O)O)c2)NC(=O)[C@H](CCCNC(=N)N)NC(=O)[C@H](CCC(N)=O)NC(=O)[C@H]([C@@H](C)CC)NC1=O [compound 88] ({CH2CO}-AV[NMePhe(3-Cl)]V[Trp(1-CH2COOH)]NYY(Carboxymethyl)[Nva(3-Et)]IQR[Phe(3-COOH)][NMeY]C[PEG4]-NH2; thioether N-15)	8.60	51.1	6.96

Further compounds by falling Kd [2], results first:

dependency koff pH6.0/7.4 [1]	Kd [2] [nM]	Kd [3] [nM]	Structure (SMILES)
20.39	252	27.1	CCC(CC)[C@@H]1NC(=O)[C@H](Cc2ccc(OCC(=O)O)cc2)NC(=O)[C@H](Cc2ccc(N)nc2)NC(=O)[C@H](CC(N)=O)NC(=O)[C@H](Cc2c[nH]c3ccccc23)NC(=O)[C@H](C(C)C)NC(=O)[C@H](Cc2cccc(Cl)c2)N(C)C(=O)[C@H](C(C)C)NC(=O)[C@H](C)NC(=O)CSC[C@@H](C(=O)NCCOCCOCCOCCOCCC(N)=O)NC(=O)[C@H](Cc2ccc(O)cc2)N(C)C(=O)[C@H](Cc2cccc(C(=O)O)c2)NC(=O)[C@H](CCCNC(=N)N)NC(=O)[C@H](CCC(=O)NCCOCCOCCOCCOCCOCCOCCOCCOC)NC(=O)[C@H]([C@@H](C)CC)NC1=O [compound 82] ({CH2CO}-AV[NMePhe(3-Cl)]VWN[3Pal(6-NH2)]Y(Carboxymethyl)[Nva(3-Et)]IE(NH(CH2CH2O)8Me)R[Phe(3-COOH)][NMeY]C[PEG4]-NH2; thioether N-15)
17.42	219	1910	CCC(CC)[C@@H]1NC(=O)[C@H](Cc2ccc(OCC(=O)O)cc2)NC(=O)[C@H](Cc2ccc(N)nc2)NC(=O)[C@H](CC(N)=O)NC(=O)[C@H](Cc2cn(CC(=O)O)c3ccccc23)NC(=O)[C@H](C(C)C)NC(=O)[C@H](Cc2cccc(Cl)c2)N(C)C(=O)[C@H](C(C)C)NC(=O)[C@H](C)NC(=O)CSC[C@@H](C(=O)NCCOCCOCCOCCOCCC(N)=O)NC(=O)[C@H](Cc2ccc(O)cc2)N(C)C(=O)[C@H](Cc2cccc(C(=O)O)c2)NC(=O)[C@H](CCCNC(=N)N)NC(=O)[C@H](CCC(N)=O)NC(=O)[C@H]([C@@H](C)CC)NC1=O [compound 84] ({CH2CO}-AV[NMePhe(3-Cl)]V[Trp(1-CH2COOH)]N[3Pal(6-NH2)]Y(Carboxymethyl)[Nva(3-Et)]IQR[Phe(3-COOH)][NMeY]C[PEG4]-NH2; thioether N-15)
3.53	76.2	45.3	CC[C@H](C)[C@@H]1NC(=O)[C@H](Cc2ccc(OCC(=O)O)cc2)NC(=O)[C@H](Cc2ccc(O)cc2)NC(=O)[C@H](CC(=O)NC)NC(=O)[C@H](Cc2c[nH]c3ccccc23)NC(=O)[C@H](C(C)C)NC(=O)[C@H](Cc2cccc(Cl)c2)N(C)C(=O)[C@H](C(C)C)NC(=O)[C@H](C)NC(=O)CSC[C@@H](C(=O)NCCOCCOCCOCCOCCC(N)=O)NC(=O)[C@H](Cc2ccc(O)cc2)N(C)C(=O)[C@H](Cc2cccc(C(=O)O)c2)NC(=O)[C@H](CCCNC(=N)N)NC(=O)[C@H](CCC(N)=O)NC(=O)[C@H]([C@@H](C)CC)NC1=O [compound 74] ({CH2CO}-AV[NMePhe(3-Cl)]VWD(NHMe)YY(Carboxymethyl)IIQR[Phe(3-COOH)][NMeY]C[PEG4]-NH2; thioether N-15)
12.78	75.2	18	CC[C@H](C)[C@@H]1NC(=O)[C@H](Cc2ccc(OCC(=O)O)cc2)NC(=O)[C@H](Cc2ccc(O)cc2)NC(=O)[C@H](CC(N)=O)NC(=O)[C@H](Cc2cn(CC(=O)O)c3ccccc23)NC(=O)[C@H](C(C)C)NC(=O)[C@H](Cc2cccc(Cl)c2)N(C)C(=O)[C@H](C(C)C)NC(=O)[C@H](C)NC(=O)CSC[C@@H](C(=O)NCCOCCOCCOCCOCCC(N)=O)NC(=O)[C@H](Cc2ccc(O)cc2)N(C)C(=O)[C@H](Cc2cccc(C(=O)O)c2)NC(=O)[C@H](CCCNC(=N)N)NC(=O)[C@H](CCC(N)=O)NC(=O)[C@H](CCCCNC(=N)N)NC1=O [compound 71] ({CH2CO}-AV[NMePhe(3-Cl)]V[Trp(1-CH2COOH)]NYY(Carboxymethyl)I[hArg]QR[Phe(3-COOH)][NMeY]C[PEG4]-NH2; thioether N-15)
5.47	44.1	13.8	CCC(CC)[C@@H]1NC(=O)[C@H](Cc2ccc(OCC(=O)O)cc2)NC(=O)[C@H](Cc2ccc(O)cc2)NC(=O)[C@H](CC(N)=O)NC(=O)[C@H](Cc2cn(CC(=O)O)c3ccccc23)NC(=O)[C@H](C(C)C)NC(=O)[C@H](Cc2cccc(Cl)c2)N(C)C(=O)[C@H](C(C)C)NC(=O)[C@H](C)NC(=O)CSC[C@@H](C(=O)NCCOCCOCCOCCOCCC(N)=O)NC(=O)[C@H](Cc2ccc(Cl)cc2)N(C)C(=O)[C@H](Cc2cccc(C(=O)O)c2)NC(=O)[C@H](CCCNC(=N)N)NC(=O)[C@H](CCC(N)=O)NC(=O)[C@H]([C@@H](C)CC)NC1=O [compound 92] ({CH2CO}-AV[NMePhe(3-Cl)]V[Trp(1-CH2COOH)]NYY(Carboxymethyl)[Nva(3-Et)]IQR[Phe(3-COOH)][NMePhe(4-Cl)]C[PEG4]-NH2; thioether N-15)
34.44	6.33	1.62	CCC(CC)[C@@H]1NC(=O)[C@H](Cc2ccc(OCC(=O)O)cc2)NC(=O)[C@H](Cc2ccc(O)cc2)NC(=O)[C@H](CC(N)=O)NC(=O)[C@H](Cc2c[nH]c3ccccc23)NC(=O)[C@H](C(C)C)NC(=O)[C@H](Cc2cccc(Cl)c2)N(C)C(=O)[C@H](C(C)C)NC(=O)[C@H](C)NC(=O)CSC[C@@H](C(=O)NCCOCCOCCOCCOCCC(N)=O)NC(=O)[C@H](Cc2ccc(O)cc2)N(C)C(=O)[C@H](Cc2cccc(C(=O)O)c2)NC(=O)[C@H](CCCNC(=N)N)NC(=O)[C@H](CCC(N)=O)NC(=O)[C@H]([C@@H](C)CC)NC1=O [compound 75] ({CH2CO}-AV[NMePhe(3-Cl)]VWNYY(Carboxymethyl)[Nva(3-Et)]IQR[Phe(3-COOH)][NMeY]C[PEG4]-NH2; thioether N-15)

Reference: patent EP4667483A1, “HUMAN TRANSFERRIN RECEPTOR-BINDING PEPTIDE” (JCR Pharmaceuticals Co., Ltd., priority 2023, dated 2024)
